Experimental data from patent US9469637B2, “Nitrogenated heterocyclic compound” (Takeda Pharmaceutical Company Limited, priority 2012, dated 2016).

Target: T1, Human PDE2A3 enzyme (Homo sapiens, UniProt O00408)
T1 construct: generated from Sf9 cells transfected with the full-length gene; His-tag; made in house; host or cells: Sf9 insect cells
Experiment: PDE2A3 enzyme inhibition, SPA (Scintillation Proximity Assay)
Format: biochemical
Conditions: 1 μM compound, substrate [3H] cGMP, read-out: Inhibition Rate (%) (1 μM)
Method: Human PDE2A3 enzyme was generated from Sf9 cells transfected with the full-length gene. The extracted enzyme from Sf9 cells was purified by His-tag affinity column and gel filtration. The enzyme was stored at −70° C. until use. PDE activity was measured using a SPA (Scintillation Proximity Assay) (GE Healthcare). To evaluate the inhibitory activity, 10 μl of serial diluted compounds were incubated with 20 μl of PDE enzyme in assay buffer (50 mM HEPES-NaOH, 8.3 mM MgCl2, 1.7 mM EGTA, 0.1% BSA (pH 7.4)) for 30 min. at room temperature. Final concentration of DMSO in the assay was 1 percent as compounds were tested in duplicate in 96-well half-area plates (Corning) or 384-well OptiPlate (PerkinElmer). To start the reaction, 10 μl of substrate [^3H] cGMP (77 nM, PerkinElmer) was added for a final assay volume of 40 μl. After 60 min incubation at room temperature, 20 μl of 20 mg/ml yttrium SPA beads containing Zinc sulphate was added to terminate the PDE reaction. […] Inhibition rate was calculated on the basis of 0% control wells with enzyme and DMSO, and 100% control wells without enzyme.

T1 sequence (O00408 whole entry): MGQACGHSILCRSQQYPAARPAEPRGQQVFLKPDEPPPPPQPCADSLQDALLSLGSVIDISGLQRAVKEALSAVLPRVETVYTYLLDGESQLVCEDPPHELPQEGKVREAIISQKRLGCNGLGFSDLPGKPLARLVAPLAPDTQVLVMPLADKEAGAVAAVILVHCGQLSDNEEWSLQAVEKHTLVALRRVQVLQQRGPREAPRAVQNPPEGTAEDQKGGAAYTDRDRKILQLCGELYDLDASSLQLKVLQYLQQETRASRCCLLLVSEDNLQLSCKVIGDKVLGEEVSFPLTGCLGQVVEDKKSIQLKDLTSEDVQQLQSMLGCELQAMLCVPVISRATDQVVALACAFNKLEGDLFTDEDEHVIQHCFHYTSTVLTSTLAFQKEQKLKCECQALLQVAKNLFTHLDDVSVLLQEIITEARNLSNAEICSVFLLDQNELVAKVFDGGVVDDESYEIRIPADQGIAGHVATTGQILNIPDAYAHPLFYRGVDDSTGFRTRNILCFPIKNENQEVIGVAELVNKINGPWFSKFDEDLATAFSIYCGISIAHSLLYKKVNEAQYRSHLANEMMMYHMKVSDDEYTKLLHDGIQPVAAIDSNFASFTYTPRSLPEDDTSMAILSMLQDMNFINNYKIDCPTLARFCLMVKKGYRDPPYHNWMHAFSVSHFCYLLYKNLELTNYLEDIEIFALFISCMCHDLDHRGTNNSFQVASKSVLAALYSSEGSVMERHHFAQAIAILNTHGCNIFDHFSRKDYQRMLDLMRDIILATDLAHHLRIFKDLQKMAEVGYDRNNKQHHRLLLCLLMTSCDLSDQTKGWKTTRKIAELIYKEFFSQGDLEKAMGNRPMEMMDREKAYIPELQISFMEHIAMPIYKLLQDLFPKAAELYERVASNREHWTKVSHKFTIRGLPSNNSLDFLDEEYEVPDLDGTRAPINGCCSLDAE

| SMILES | inhibition at 1 µM [%] |
| --- | --- |
| CCC(NC(=O)N1CC(=O)Nc2ccc(OC)nc21)c1ccc(OC(F)(F)F)cc1 (stereo not drawn) [Example 52, 6-methoxy-2-oxo-N-(1-(4-(trifluoromethoxy)phenyl)propyl)-2,3-dihydropyrido[2,3-b]pyrazine-4(1H)-carboxamide] | 93 |
| CC(C)(O)C(NC(=O)N1CC(=O)Nc2cc(C3CC3)cnc21)c1ccc(OC(F)(F)F)c(F)c1 (stereo not drawn) [Example 76, Optically active 7-cyclopropyl-N-(1-(3-fluoro-4-(trifluoromethoxy)phenyl)-2-hydroxy-2-methylpropyl)-2-oxo-2,3-dihydropyrido[2,3-b]pyrazine-4(1H)-carboxamide] | 100 |
| COC[C@@H](NC(=O)N1CC(=O)Nc2ccc(-n3cccn3)nc21)c1ccc(OC(F)(F)F)c(F)c1 [Example 117, N-((1S)-1-(3-fluoro-4-(trifluoromethoxy)phenyl)-2-methoxyethyl)-2-oxo-6-(1H-pyrazol-1-yl)-2,3-dihydropyrido[2,3-b]pyrazine-4(1H)-carboxamide] | 99 |
| COC[C@@H](NC(=O)N1CC(=O)Nc2ccc(-n3cccn3)nc21)c1ccc(OC(F)(F)F)cc1 [Example 130, N-((1S)-2-methoxy-1-(4-(trifluoromethoxy)phenyl)ethyl)-2-oxo-6-(1H-pyrazol-1-yl)-2,3-dihydropyrido[2,3-b]pyrazine-4(1H)-carboxamide] | 99 |
| COCC(NC(=O)N1CC(=O)Nc2cc(C)cnc21)c1ccc(-n2cccn2)cc1 (stereo not drawn) [Example 134, N-(2-methoxy-1-(4-(H-pyrazol-1-yl)phenyl)ethyl)-7-methyl-2-oxo-2,3-dihydropyrido[2,3-b]pyrazine-4(1H)-carboxamide] | 97 |
| COCC(NC(=O)N1CC(=O)Nc2cc(C)cnc21)c1ccc(-n2cccn2)c(F)c1 (stereo not drawn) [Example 143, N-(1-(3-fluoro-4-(1H-pyrazol-1-yl)phenyl)-2-methoxyethyl)-7-methyl-2-oxo-2,3-dihydropyrido[2,3-b]pyrazine-4(1H)-carboxamide] | 98 |
| Cc1cnc2c(c1)NC(=O)CN2C(=O)NC1(c2ccc(OC(F)(F)F)cc2)CC1 [Example 152, 7-methyl-2-oxo-N-(1-(4-(trifluoromethoxy)phenyl)cyclopropyl)-2,3-dihydropyrido[2,3-b]pyrazine-4(1H)-carboxamide] | 97 |
| CCC(NC(=O)N1CC(=O)Nc2cc(C)cnc21)c1ccc(-n2cccn2)s1 (stereo not drawn) [Example 162, 7-methyl-2-oxo-N-(1-(5-(1H-pyrazol-1-yl)-2-thienyl)propyl)-2,3-dihydropyrido[2,3-b]pyrazine-4(1H)-carboxamide] | 97 |
| Cc1cnc2c(c1)NC(=O)CN2C(=O)NC(c1ccc(OC(F)(F)F)cc1)C1CCCO1 (stereo not drawn) [Example 200, 7-methyl-2-oxo-N-(tetrahydrofuran-2-yl(4-(trifluoromethoxy)phenyl)methyl)-2,3-dihydropyrido[2,3-b]pyrazine-4(1H)-carboxamide] | 100 |
| COCC(NC(=O)N1CC(=O)Nc2ccc(-c3ccn(C)n3)nc21)c1ccc(OC(F)(F)F)cc1 (stereo not drawn) [Example 222, N-(2-methoxy-1-(4-(trifluoromethoxy)phenyl)ethyl)-6-(1-methyl-1H-pyrazol-3-yl)-2-oxo-2,3-dihydropyrido[2,3-b]pyrazine-4(1H)-carboxamide] | 99 |
| COc1cc2c(nc1C)N(C(=O)N[C@@H](c1ccc(OC(F)(F)F)cc1)C(C)(C)O)CC(=O)N2 [Example 253, N-((1S)-2-hydroxy-2-methyl-1-(4-(trifluoromethoxy)phenyl)propyl)-7-methoxy-6-methyl-2-oxo-2,3-dihydropyrido[2,3-b]pyrazine-4(1H)-carboxamide] | 100 |
| COc1nc2c(cc1C)NC(=O)CN2C(=O)N[C@@H](c1ccc(OC(F)(F)F)cc1)C(C)(C)O [Example 261, N-((1S)-2-hydroxy-2-methyl-1-(4-(trifluoromethoxy)phenyl)propyl)-6-methoxy-7-methyl-2-oxo-2,3-dihydropyrido[2,3-b]pyrazine-4(1H)-carboxamide] | 100 |
| CC(C)(O)C(NC(=O)N1CC(=O)Nc2cc(C3CC3)cnc21)c1ccc(C(F)(F)F)cc1 (stereo not drawn) [Example 266, Optically active 7-cyclopropyl-N-(2-hydroxy-2-methyl-1-(4-(trifluoromethyl)phenyl)propyl)-2-oxo-2,3-dihydropyrido[2,3-b]pyrazine-4(1H)-carboxamide] | 100 |
| COc1cnc2c(c1)NC(=O)CN2C(=O)NC(c1ccc(C(F)(F)F)cc1)C(C)(C)O (stereo not drawn) [Example 268, Optically active N-(2-hydroxy-2-methyl-1-(4-(trifluoromethyl)phenyl)propyl)-7-methoxy-2-oxo-2,3-dihydropyrido[2,3-b]pyrazine-4(1H)-carboxamide] | 99 |
| Cc1cnc2c(c1)NC(=O)CN2C(=O)NC(c1ccc(OC(F)(F)F)c(F)c1)C(C)(C)O (stereo not drawn) [Example 273, Optically active N-(1-(3-fluoro-4-(trifluoromethoxy)phenyl)-2-hydroxy-2-methylpropyl)-7-methyl-2-oxo-2,3-dihydropyrido[2,3-b]pyrazine-4(1H)-carboxamide] | 98 |
